Where two headings read alike, the source gives them in different places.
Columns and labels:
[1] = test system: late components of human complement (C3-C9); assay: Test Code 035 (C3-C9 inhibitor), lysis of EAC 142; format: biochemical; details: activity in wells, twofold serial dilution assay; higher well number indicates higher activity
Excerpt: (§1) An active inhibitor protects C2 from C1 and C4; (ii) Test Code 035 (C3-C9 inhibitor)--This test determines the ability of the late components of human complement (C3-C9) to lyse EAC 142 in the presence of appropriate dilutions of the test compound. An active inhibitor protects EAC 142 from lysis by human C3-C9; (iii) Test Code 036 (C-Shunt inhibitor)--In this test human erythrocytes rendered fragile are lysed in autologous serum via the shunt pathway activated by cobra venom factor in the presence of appropriate dilutions of the test compound. Inhibition of the shunt pathway results in failure of lysis; (iv) Forssman Vasculitis Test--Here, the well known complement dependent lesion, Forssman vasculitis, is produced in guinea pigs by intradermal injection of rabbit anti-Forssman antiserum. […] Percent inhibition is calculated by comparison with simultaneous controls. […]

complement activity = assay: Guinea Pig Intraperitoneal Test (GPIP), serum complement activity; format: in vivo; details: Cavia porcellus, ip, 200 mg./kg. i.p., vs simultaneous controls
Excerpt: An active inhibitor protects C2 from C1 and C4; (ii) Test Code 035 (C3-C9 inhibitor)--This test determines the ability of the late components of human complement (C3-C9) to lyse EAC 142 in the presence of appropriate dilutions of the test compound. An active inhibitor protects EAC 142 from lysis by human C3-C9; (iii) Test Code 036 (C-Shunt inhibitor)--In this test human erythrocytes rendered fragile are lysed in autologous serum via the shunt pathway activated by cobra venom factor in the presence of appropriate dilutions of the test compound. Inhibition of the shunt pathway results in failure of lysis; (iv) Forssman Vasculitis Test--Here, the well known complement dependent lesion, Forssman vasculitis, is produced in guinea pigs by intradermal injection of rabbit anti-Forssman antiserum. The lesion is measured in terms of diameter, edema and hemorrhage and the extent to which a combined index of these is inhibited by prior intraperitoneal injection of the test compound at 200 mg./kg. is then reported, unless otherwise stated; (v) Forssman Shock Test--Lethal shock is produced in guinea pigs by an i.v. injection of anti-Forssman antiserum and the harmonic mean death time of treated guinea pigs is compared with that of simultaneous controls; (vi) Complement Level Reduction Test--In this test, the above dosed guinea pigs, or others, are bled for serum and the complement level is determined in undiluted serum by the capillary tube method of U.S. Pat. No. 3,876,376 and compared to undosed control guinea pigs; (vii) Cap 50 Test--Here, appropriate amounts of the test compound are added to a pool of guinea pig serum in vitro, after which the undiluted serum capillary tube assay referred to above is run. The concentration of compound inhibiting 50% is reported; (viii) Guinea Pig Intraperitoneal Test (GPIP)--Guinea Pigs weighing about 300 g. are dosed intraperitoneally (i.p.) with 200 mg./kg. of the test compound dissolved in saline and adjusted to pH 7-8. […] Percent inhibition is calculated by comparison with simultaneous controls. […]

shunt pathway = assay: Test Code 036 (C-Shunt inhibitor), lysis of human erythrocytes in autologous serum activated by cobra venom factor; format: cell-based; details: activity in wells, twofold serial dilution assay; higher well number indicates higher activity
Excerpt: as §1

activated human C1 = molecular target: T1, activated human C1 (Homo sapiens, UniProt P09871); assay: Test Code 026 (C1 inhibitor); format: biochemical; details: activity in wells, twofold serial dilution assay; higher well number indicates higher activity
T1 sequence (P09871 16-437 limits assumed): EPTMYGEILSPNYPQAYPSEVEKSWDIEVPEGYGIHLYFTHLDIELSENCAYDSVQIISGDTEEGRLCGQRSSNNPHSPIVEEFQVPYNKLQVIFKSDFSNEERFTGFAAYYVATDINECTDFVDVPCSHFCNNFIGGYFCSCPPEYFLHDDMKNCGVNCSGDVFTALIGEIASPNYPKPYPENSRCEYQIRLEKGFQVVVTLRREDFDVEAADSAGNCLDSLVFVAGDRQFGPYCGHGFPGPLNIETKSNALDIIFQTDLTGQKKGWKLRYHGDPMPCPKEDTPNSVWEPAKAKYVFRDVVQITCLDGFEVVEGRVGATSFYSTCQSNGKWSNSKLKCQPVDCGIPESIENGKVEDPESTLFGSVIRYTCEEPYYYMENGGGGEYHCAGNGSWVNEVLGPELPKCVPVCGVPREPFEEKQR
T1 sequence (P09871 438-688 limits assumed): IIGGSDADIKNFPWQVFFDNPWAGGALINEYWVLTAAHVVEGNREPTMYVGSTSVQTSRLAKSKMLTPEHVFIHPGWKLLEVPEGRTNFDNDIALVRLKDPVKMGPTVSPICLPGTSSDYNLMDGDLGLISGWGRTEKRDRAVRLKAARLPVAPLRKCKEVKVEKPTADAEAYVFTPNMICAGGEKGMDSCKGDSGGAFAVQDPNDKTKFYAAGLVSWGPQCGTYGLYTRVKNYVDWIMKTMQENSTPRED
Excerpt: as §1

In the case of `O=S(=O)([O-])c1cc(NS(=O)(=O)c2cc(S(=O)(=O)Nc3cc(S(=O)(=O)[O-])cc(S(=O)(=O)[O-])c3)c3cc(S(=O)(=O)Nc4cc(S(=O)(=O)[O-])cc(S(=O)(=O)[O-])c4)cc(S(=O)(=O)Nc4cc(S(=O)(=O)[O-])cc(S(=O)(=O)[O-])c4)c3c2)cc(S(=O)(=O)[O-])c1.[Na+].[Na+].[Na+].[Na+].[Na+].[Na+].[Na+].[Na+]` [5,5',5",5"'-[1,3,5,7-Naphthalenetetrayltetrakis(sulfonylimino)]tetrakis-1,3-benzenedisulfonic acid, octasodium salt], the “C-Late 035* Wells” value [1] is reported as “+1 Wells”, the inhibition at 200 mg/kg (complement activity; 0.5 h, serum 30 minutes after injection, read-out: In Vivo Activity (Guinea Pig) % Inhibition Intraperitoneal, 30 minutes) is reported as -62% and the inhibition at 200 mg/kg (complement activity; 1 h, serum 60 minutes after injection, read-out: In Vivo Activity (Guinea Pig) % Inhibition Intraperitoneal, 60 minutes) is reported as -59%. For the same molecule, the inhibition at 200 mg/kg (complement activity; 2 h, serum 120 minutes after injection, read-out: In Vivo Activity (Guinea Pig) % Inhibition Intraperitoneal, 120 minutes) was -81%, the “Shunt Inhibition 036* Wells” value (shunt pathway) was “+7 Wells” and the “Cl 026* Wells” value (activated human C1) was “+10 Wells”.

From patent US4265830A, “Naphthalenetetrayletrakis(sulfonylimino)-aryl disulfonic acids and salts thereof” (priority 1979, dated 1981)
